# Laboratory results published in patent US4632932A, “Antimycotic agents” (Bayer Aktiengesellschaft, priority 1982, dated 1986).
# How the values were obtained:
# Candida cells = assay: Antimycotic in vivo activity (oral) in candidosis of mice; set-up: species or system Mice of the SPF-CF1 type; settings: 50-100 mg/kg
# Experimental: Description of the experiment
# Mice of the SPF-CF1 type were infected intravenously with 1-2×10^6 logarithmically growing Candida cells, which are suspended in physiological sodium chloride solution. The animals were treated orally one hour before and seven hours after the infection, with, in each case, 50-100 mg/kg of body weight of the formulations.
# Untreated animals died 3 to 6 days after infection. The survival rate on the 6th day after infection was about 5% in the case of untreated control animals.
# [1] = system: dermatophytes, moulds and yeasts; assay: Antimycotic in vitro activity, series dilution test, overall comparison; assay type: cell-based
# Experimental: (§1) Description of the experiment:
# (§2) The in vitro tests were carried out in a series dilution test with germ inocula of an average of 5×10^4 germs/ml of substrate. The nutrient medium was (a) for dermatophytes and moulds: Sabourand's milieu d'epreuve and (b) for yeasts: meat extract/glucose broth.
# (§3) The incubation temperature was 20° C. and the duration of incubation was 24 to 96 hours in the case of yeasts and 96 hours in the case of dermatophytes and moulds.
# [2] = system: trichophyton of mentagrophytes; assay: Antimicrobial in vivo activity (local) in the model of experimental guinea-pig trichophytosis; settings: once daily, 15% strength solution
# Aspergillus fumigatus = assay: Antimycotic in vitro activity, series dilution test (MIC), Aspergillus fumigatus; assay type: cell-based; set-up: unit not given here; settings: Sabourand's milieu d'epreuve, 20° C., 96 hours
# Experimental: as §1, §2, §3
# Trichophyton mentagr. = assay: Antimycotic in vitro activity, series dilution test (MIC), Trichophyton mentagr.; assay type: cell-based; set-up: unit not given here; settings: Sabourand's milieu d'epreuve, 20° C., 96 hours
# Experimental: as §1, §2, §3
# Candida albicans = assay: Antimycotic in vitro activity, series dilution test (MIC), Candida albicans; assay type: cell-based; set-up: unit not given here; settings: meat extract/glucose broth, 20° C., 24 to 96 hours
# Experimental: as §1, §2, §3
# Torulopsis glabrata = assay: Antimycotic in vitro activity, series dilution test (MIC), Torulopsis glabrata; assay type: cell-based; set-up: unit not given here; settings: meat extract/glucose broth, 20° C., 24 to 96 hours
# Experimental: as §1, §2, §3
# Microsporum canis = assay: Antimycotic in vitro activity, series dilution test (MIC), Microsporum canis; assay type: cell-based; set-up: unit not given here; settings: Sabourand's milieu d'epreuve, 20° C., 96 hours
# Experimental: as §1, §2, §3
Compound,"action compared with compounds (A), (B), (C) and (D) (Candida cells)","antimycotic action in vitro compared with compounds (A), (B), (C) and (D) [1]",action (statement in words) [2],other results
CC1(C(O)(CCc2ccc(Cl)cc2)Cn2cncn2)COCOC1 (stereo not shown) [Example 9],better action,better antimycotic action,an action or a good action,–
CC1(C(O)(COc2ccc(Cl)cc2)Cn2cncn2)COCOC1 (stereo not shown) [Example 16],better action,better antimycotic action,–,–
CC1(C(O)(COc2ccc(Cl)cc2)Cn2ccnc2)COCOC1 (stereo not shown) [Example 26],better action,–,–,–
CC(C)(C1OCCO1)C(O)(CCc1ccc(Cl)cc1)Cn1ccnc1 (stereo not shown) [Example 19],better action,better antimycotic action,an action or a good action,–
CC(C)(C1OCCO1)C(O)(CCc1ccc(Cl)cc1Cl)Cn1ccnc1 (stereo not shown) [Example 20],better action,better antimycotic action,an action or a good action,–
CC1(C(O)(C=Cc2ccc(Cl)cc2)Cn2cncn2)COCOC1 (stereo not shown) [Example 13],–,better antimycotic action,–,–
CC(C)(C1OCCO1)C(O)(COc1ccc(Cl)cc1)Cn1cncn1 (stereo not shown) [Example 15],better action,better antimycotic action,–,–
CC(C)(C1OCCO1)C(O)(C=Cc1ccc(Cl)cc1)Cn1cncn1 (stereo not shown) [Example 10],better action,better antimycotic action,an action or a good action,–
"CC(C)(C1OCCO1)C(O)(Cn1cncn1)c1ccc(Cl)cc1 (stereo not shown) [Example 3, 3-(1,3-dioxolan-2-yl)-2-(4-chlorophenyl)-3-methyl-1-(1,2,4-triazol-1-yl)-butan-2-ol]",better action,better antimycotic action,–,–
"1-(2-methylphenoxy)-3,3-dimethyl-2-(1,2,4-triazol-1-yl-methyl)-2-butanol [(C)]",–,–,–,MIC values (Aspergillus fumigatus): > 64; MIC values (Trichophyton mentagr.): 32; MIC values (Candida albicans): 32; MIC values (Torulopsis glabrata): > 64
CC(C)(C1OCCO1)C(O)(C=Cc1ccc(Cl)cc1)Cn1ccnc1 (stereo not shown) [Example 23],better action,better antimycotic action,an action or a good action,–
CC1(C(O)(CCc2ccc(Cl)cc2Cl)Cn2ccnc2)COCOC1 (stereo not shown) [Example 21],better action,better antimycotic action,an action or a good action,–
"1-(2-methylphenoxy)-3,3-dimethyl-2-(imidazol-1-yl-methyl)-2-butanol [(B)]",–,–,–,MIC values (Microsporum canis): 4; MIC values (Aspergillus fumigatus): 32; MIC values (Trichophyton mentagr.): 4; MIC values (Candida albicans): 32; MIC values (Torulopsis glabrata): > 64
CC1(C(O)(C=Cc2ccc(Cl)cc2)Cn2cncn2)COCOC1 (stereo not shown) [Example 12],–,better antimycotic action,–,–
CC(C)(C1OCCO1)C(O)(C=Cc1ccc(Cl)cc1Cl)Cn1cncn1 (stereo not shown) [Example 11],–,better antimycotic action,–,–
CC(C)(C1OCCO1)C(O)(CCc1ccc(Cl)cc1)Cn1cncn1 (stereo not shown) [Example 7],better action,better antimycotic action,an action or a good action,–
CC1(C(O)(CCc2ccc(Cl)cc2Cl)Cn2cncn2)COCOC1 (stereo not shown) [Example 8],better action,better antimycotic action,an action or a good action,–
CC(C)(C1OCCO1)C(O)(COc1ccc(-c2ccccc2)cc1)Cn1cncn1 (stereo not shown) [Example 14],better action,better antimycotic action,an action or a good action,–
"CC(C)(C1OCCO1)C(O)(CCc1ccc(Cl)cc1Cl)Cn1cncn1 (stereo not shown) [Example 5, 1-(2,4-dichlorophenyl)-4-(1,3-dioxolan-2-yl)-4-methyl-3-(1,2,4-triazol-1-yl-methyl)-pentan-3-ol naphthalene-1,5-disulphonate]",–,better antimycotic action,–,–
CC1(C(O)(CCc2ccc(Cl)cc2)Cn2ccnc2)COCOC1 (stereo not shown) [Example 22],better action,–,an action or a good action,–
